Test results as given in ChEMBL document CHEMBL2062419, “Synthesis and antiviral activities of hexadecyloxypropyl prodrugs of acyclic nucleoside phosphonates containing guanine or hypoxanthine and a (S)-HPMP or PEE acyclic moiety” (Eur J Med Chem, 2012).
Activity calls are given as the source filed them. The rule behind the calls is not given here.

Columns and labels:
Human respirovirus 3 = experiment: Antiviral activity against Human parainfluenza virus 3 by viral CPE assay; assay type: functional, organism-based
Coxsackievirus B4 = experiment: Antiviral activity against Human coxsackievirus B4 by viral CPE assay; assay type: functional, organism-based
Human alphaherpesvirus 3 [1] = experiment: Antiviral activity against thymidine kinase positive VZV OKa infected in HEL cells by plaque formation assay; assay type: functional, cell-based, Human herpesvirus 3 strain Oka vaccine; conditions: Human alphaherpesvirus 3, OKa
Human betaherpesvirus 5 [2] = experiment: Antiviral activity against HCMV Davis infected in HEL cells by viral CPE assay; assay type: functional, organism-based; conditions: Human betaherpesvirus 5, Davis
Human alphaherpesvirus 1 [3] = experiment: Antiviral activity against thymidine kinase negative and ACV resistant HSV1 KOS infected in HEL cells by viral CPE assay; assay type: functional, organism-based; conditions: Human alphaherpesvirus 1, KOS
Sindbis virus = experiment: Antiviral activity against Sindbis virus by viral CPE assay; assay type: functional, organism-based
Vaccinia virus = experiment: Antiviral activity against Vaccinia virus Lederie infected in HEL cells by viral CPE assay; assay type: functional, organism-based; conditions: Orthopoxvirus vaccinia
Human betaherpesvirus 5 [4] = experiment: Antiviral activity against HCMV AD169 infected in HEL cells by viral CPE assay; assay type: functional, organism-based; conditions: Human betaherpesvirus 5, AD169, HEL
Human alphaherpesvirus 2 = experiment: Antiviral activity against HSV2 G infected in HEL cells by viral CPE assay; assay type: functional, organism-based; conditions: Human alphaherpesvirus 2, strain G
[5] = Cytotoxicity against HEL cells assessed as effect on cell morphology incubated for 3 days by microscopy; assay type: cell-based; conditions: human
Human alphaherpesvirus 3 [6] = experiment: Antiviral activity against thymidine kinase negative VZV 07/01 infected in HEL cells by plaque formation assay; assay type: functional, organism-based; conditions: Human alphaherpesvirus 3, 07/01, HEL
[7] = system: Respiratory syncytial virus; experiment: Antiviral activity against Respiratory syncytial virus Long by viral CPE assay; assay type: functional, organism-based
Punta Toro virus = experiment: Antiviral activity against Punta Toro virus by viral CPE assay; assay type: functional, organism-based
[8] = system: Human immunodeficiency virus 2; experiment: Antiviral activity against HIV2 ROD infected in human CEM cells assessed as reduction in virus-induced CEM giant cell formation incubated for 4 days at 37 degC by microscopy; assay type: functional, organism-based; conditions: ISOLATE ROD, CCRF-CEM
HEL = experiment: Cytotoxicity against HEL cells assessed as effect on cell growth incubated for 3 days by Coulter counter assay; assay type: cell-based; conditions: human, 72 h
[9] = system: Mammalian orthoreovirus 1; experiment: Antiviral activity against Reovirus 1 by viral CPE assay; assay type: functional, organism-based
Felid alphaherpesvirus 1 = experiment: Antiviral activity against Feline herpesvirus infected in CRFK cells by viral CPE assay; assay type: functional, organism-based; conditions: Felid alphaherpesvirus 1, CRFK
[10] = system: Human immunodeficiency virus 1; experiment: Antiviral activity against HIV1 3B infected in human CEM cells assessed as reduction in virus-induced CEM giant cell formation incubated for 4 days at 37 degC by microscopy; assay type: functional, organism-based; conditions: CCRF-CEM
Human alphaherpesvirus 1 [11] = experiment: Antiviral activity against HSV1 KOS infected in HEL cells by viral CPE assay; assay type: functional, organism-based; conditions: Human alphaherpesvirus 1, KOS
[12] = system: Vesicular stomatitis virus; experiment: Antiviral activity against VSV by viral CPE assay; assay type: functional, organism-based

| Compound | Activity (Human respirovirus 3) | Activity (Coxsackievirus B4) | EC50 (Human alphaherpesvirus 3 [1]) [µM] | EC50 (Human betaherpesvirus 5 [2]) [µM] | EC50 (Human alphaherpesvirus 1 [3]) [µM] | Activity (Sindbis virus) | EC50 (Vaccinia virus) [µM] | EC50 (Human betaherpesvirus 5 [4]) [µM] | EC50 (Human alphaherpesvirus 2) [µM] | MCC at 72 h [5] [µM] | EC50 (Human alphaherpesvirus 3 [6]) [µM] | Activity [7] | Activity (Punta Toro virus) | Activity [8] | CC50 (HEL) [µM] | Activity [9] | EC50 (Felid alphaherpesvirus 1) [µM] | Activity [10] | EC50 (Human alphaherpesvirus 1 [11]) [µM] | Activity [12] |
| --- | --- | --- | --- | --- | --- | --- | --- | --- | --- | --- | --- | --- | --- | --- | --- | --- | --- | --- | --- | --- |
| CCCCCCCCCCCCCCCCOCCCOP(=O)(CCOCCn1cnc2c(=O)[nH]c(N)nc21)OCCCOCCCCCCCCCCCCCCCC | inactive | inactive | > 23 | > 23 | > 115 | inactive | > 115 | > 23 | > 115 | ≥ 23 | > 23 | inactive | inactive | inactive | > 115 | inactive | > 115 | inactive | > 115 | inactive |
| Nc1ccn(C[C@@H](CO)OCP(=O)(O)O)c(=O)n1 [CIDOFOVIR] | – | – | – | – | 1.75 | – | 14 | 1.37 | – | > 317 | – | – | – | – | 241 | – | – | – | 0.93 | – |
| Nc1nc(O)c2ncn(COC(CO)CO)c2n1 [GANCICLOVIR] | – | – | – | – | – | – | ≥ 93 | – | 0.029 | > 394 | – | – | – | – | 231 | – | 1.15 | – | – | – |
| CCCCCCCCCCCCCCCCOCCCOP1(=O)CO[C@@H](Cn2cnc3c(=O)[nH]cnc32)CO1 (mixture of isomers) | inactive | inactive | > 1.4 | > 7 | > 7 | inactive | > 7 | > 7 | > 7 | ≥ 7 | > 1.4 | inactive | inactive | inactive | > 176 | inactive | > 176 | inactive | > 7 | inactive |
| CCCCCCCCCCCCCCCCOCCCOP(=O)(CCOCCn1cnc2c(=O)[nH]cnc21)OCCCOCCCCCCCCCCCCCCCC | inactive | inactive | > 23.4 | > 23.4 | > 117 | inactive | > 117 | > 23.4 | > 117 | ≥ 117 | > 23.4 | inactive | inactive | inactive | 117 | inactive | > 23.4 | inactive | > 117 | inactive |
| Nc1nc2c(ncn2COCCO)c(=O)[nH]1 [ACYCLOVIR] | – | – | – | – | ≥ 212 | – | > 1000 | – | 0.38 | > 444 | – | – | – | – | 918 | – | – | – | 0.53 | – |
| CCCCCCCCCCCCCCCCOCCCOP(=O)(O)CCOCCn1cnc2c(=O)[nH]cnc21 | inactive | inactive | > 35 | > 35 | > 35 | inactive | > 35 | > 35 | > 35 | 175 | > 35 | inactive | inactive | inactive | 78 | inactive | > 35 | inactive | > 35 | inactive |
| CCCCCCCCCCCCCCCCOCCCOP(=O)(O)CO[C@H](CO)Cn1cnc2c(=O)[nH]cnc21 | inactive | inactive | > 6.8 | 15.2 | > 6.8 | inactive | > 6.8 | > 34 | > 6.8 | ≥ 34 | – | inactive | inactive | inactive | 66 | inactive | > 34 | inactive | > 6.8 | inactive |
